Values quoted from earlier work as cited in patent publication US20110098303A1, “Method of promoting nail growth using thyromimetic compounds” (priority 2002, published 2011).

Legend:
[1] = tested on: nail growth; settings: in vivo
[2] = tested on: mice
[3] = tested on: AGA mouse; settings: topical treatment

Row | SMILES | rate of nail growth [1] | hair growth ([2]; administered locally, directly to the skin) | growth of hair ([2]; systemically administered) | effect on testosterone induced alopecia [3]
1 | N[C@@H](Cc1ccc(O)c(O)c1)C(=O)O [I-dopa] | accelerate the rate of nail growth |  |  | 
2 | N[C@@H](CSSC[C@H](N)C(=O)O)C(=O)O [cystine] | accelerate the rate of nail growth |  |  | 
3 | CSCC[C@H](N)C(=O)O [methionine] | accelerate the rate of nail growth |  |  | 
4 | O=C(O)CCCC[C@@H]1SC[C@@H]2NC(=O)N[C@@H]21 [biotin] | accelerate the rate of nail growth |  |  | 
5 | N[C@@H](Cc1cc(I)c(Oc2ccc(O)c(I)c2)c(I)c1)C(=O)O [T3, 3,5,3′-triiodo-L-thyronine] |  | dramatic acceleration of hair growth | inhibits the growth of hair | inhibitory effect
